{"source": "paper PMC5735069", "about": "“Targeting the NFAT1-MDM2-MDMX Network Inhibits the Proliferation and Invasion of Prostate Cancer Cells, Independent of p53 and Androgen” (Frontiers in Pharmacology, 2017)", "key": {"[1]": {"biological_target": "T1, MDMX (Homo sapiens, UniProt O15151)", "T1 construct": "gene MDM4; GST-MDMX RING (RING domain)", "T1 sequence (O15151 428-490 limits assumed)": "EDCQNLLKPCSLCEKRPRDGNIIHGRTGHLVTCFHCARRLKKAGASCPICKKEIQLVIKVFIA", "test": "biotin-InuA streptavidin pulldown with free InuA competition; time-dependent covalent binding kinetics by Western blot (biotin-InuA)"}, "[2]": {"biological_target": "T2, MDM2 (Homo sapiens, UniProt Q00987)", "T2 construct": "GST-MDM2 RING (RING domain)", "T2 sequence (Q00987 428-491 limits assumed)": "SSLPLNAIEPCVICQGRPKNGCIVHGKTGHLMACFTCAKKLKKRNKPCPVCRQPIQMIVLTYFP", "test": "biotin-InuA streptavidin pulldown with free InuA competition; time-dependent covalent binding kinetics by Western blot (biotin-InuA)"}}, "data": [{"substance": "Inulanolide A [InuA]", "values": [{"measurement": "KI (inactivation)", "setting": "[1]", "value": 0.86, "unit": "µM"}, {"measurement": "KI (inactivation)", "setting": "[2]", "value": 0.55, "unit": "µM"}]}]}
